One series addresses T1, CYP1A2 (Homo sapiens, UniProt P05177).
T1 sequence (P05177 1-516): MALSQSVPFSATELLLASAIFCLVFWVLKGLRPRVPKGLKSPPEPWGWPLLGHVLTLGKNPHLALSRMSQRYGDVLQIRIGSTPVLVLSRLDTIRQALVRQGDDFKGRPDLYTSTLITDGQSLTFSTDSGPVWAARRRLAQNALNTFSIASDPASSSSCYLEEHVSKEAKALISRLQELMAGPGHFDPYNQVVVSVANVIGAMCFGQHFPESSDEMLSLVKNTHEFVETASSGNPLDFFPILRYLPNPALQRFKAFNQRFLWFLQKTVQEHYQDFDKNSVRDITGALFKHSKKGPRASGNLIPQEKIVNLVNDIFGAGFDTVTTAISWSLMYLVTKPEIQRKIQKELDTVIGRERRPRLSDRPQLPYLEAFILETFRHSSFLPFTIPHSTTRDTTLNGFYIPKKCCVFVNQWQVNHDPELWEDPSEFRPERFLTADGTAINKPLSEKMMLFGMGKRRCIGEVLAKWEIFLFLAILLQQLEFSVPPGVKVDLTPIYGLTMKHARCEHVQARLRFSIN
Nature of the series: Metabolism in transgenic HEK293 cells expressing CYP1A2 (LC-MS/MS of supernatant). The method, then:
For the generation of transgenic cell lines, we used semi-adherent HEK293 cells (DSMZ, ACC305, human embryonic kidney cells) which were cultured on a daily basis in DMEM medium supplemented with 10% (FCS) and 1% penicillin/streptomycin. In a first step CYP1A2, CYP2C8, CYP2C9, CYP3A4, CYP2A6, and CYP2E1 cDNA were cloned into the plasmid pcDNATM3.1/V5-His TOPO® using human liver RNA as a template and using the following primers: CYP1A2 for5′-[…]-3′, CYP1A2 rev 5′-[…]-3′; CYP2C8 for 5′-[…]-3′, CYP2C8 rev 5′-[…]-3′; CYP2C9 for 5′-[…]-3′, CYP2C9 rev 5′-[…]-3′; CYP3A4 for 5′-[…]-3′, CYP3A4 rev 5′-[…]-3′, CYP2A6 for 5′-[…]-3′, CYP2A6 rev 5′-[…]-3′; CYP2E1 for 5′-[…]-3′, CYP2E1 rev 5′-[…]-3′. Final constructs were verified with Sanger DNA sequencing and restriction digestion. For transfection, 3 × 10^6 HEK293 cells were pre-incubated in a 10 cm dish in DMEM medium with 10% FCS, but without antibiotics, for 18 to 24 h. When the cells reached approximately 70% confluency, they were transfected using TransIT-LT1 transfection reagent (Biozol, Eiching, Germany). The TransIT-LT1 reagent was warmed to room temperature and vortexed. 1.63 mL Opti-MEM, 16.25 µL plasmid DNA (1 µg/µL), and 48.75 µL TransIT-LT1 reagent were mixed and incubated for 15 to 30 min. The mixture was then added dropwise to the medium of the cells, and the cells were incubated again at 37 °C and 5% CO2. After 24 h, the medium was replaced with standard medium and geneticin was added for selection (1 mg/mL). Cells were selected for 6–8 weeks in bulk culture, and single cell clones were obtained subsequently by limiting dilution. Each clone was checked for insertion by PCR using genomic DNA as a template.
Parallel samples were run without the addition of PCBs. At a confluence of 80%, PCBs (20 μM each, dissolved in ethanol) were added and cells were incubated for 24 h before harvest of supernatants. Supernatants were diluted 1:2 with 80 μL acetate buffer 0.1 M (pH = 5.3). 100 μL of this dilution were further incubated with 100 μL of ammonium acetate buffer 0.1 M (pH = 5.3) and 5 μL of β-Glucuronidase/Arylsulfatase enzyme overnight in a drying oven at 37 °C for enzymatic hydrolysis to release conjugated compounds. 50 μL of a mix of internal standards (10 ng/mL) and 600 μL of methanol were added to the samples, then mixed by vortexing for 1 min and centrifuged for 10 min at 3400g. The individual supernatants were transferred to glass LC vials and evaporated to approximately 50 μL at 45 °C under a gentle stream of nitrogen. Finally, 0.1 mol/ L ammonium acetate buffer was added to a final volume of 100 μL and then transferred to an insert for analysis.
HEK293 cells overexpressing the respective CYP enzymes were seeded onto 6-well plates and were treated with or without 10 µM of the respective probe drug in DMEM medium for 24 hours at 37 °C and 5 % CO2. After incubation 200 µL DMEM were collected, cells were washed with PBS and adherent cells were lysed in 500 µL methanol for 20 minutes. Analytes were measured by LC-MS/MS either in methanol cell lysates or in DMEM supernatant.
50 µL of DMEM samples were protein precipitated by adding 200 µL of methanol and were centrifuged for 20 min, 17,000 g and 4°C. Supernatants were diluted in water or 40 % methanol according to dilution factor. Methanol cell lysates were diluted ½ with water and centrifuged for 20 min, 17,000 g and 4°C. 5 µL of the processed samples were injected for LC-MS analysis.

Series [1] concerns HEK293CYP2A6 cells. Nature of the series: MTT assay in HEK293CYP2A6 cells. It is filed as cell-based, human. The method, then: For the determination of metabolic activity, HEK293 cells as well as transgenic HEK293CYP2A6 and HEK293CYP2C9 cells were plated into 96-well flat-bottomed microtiter plates (Becton Dickinson, Heidelberg, Germany) at a density of 1 × 10^5 cells in 100 μL of media. Cells were allowed to grow for 24 h geneticin free before PCBs were added. Controls included cells grown in medium with and without ethanol (maximal 1% (vol/vol)) added. After 48 h, the ability of remaining viable cells to transform 3-(4,5-dimethylthiazol-2-yl)-2,5-diphenyltetrazolium bromide (MTT) into formazan was assessed (MTT Cell Proliferation Assay, ATCC, Manassas, USA). The absorbance of the samples was measured on a Microplate Reader (FLUOstar, BMG Labtech, Ortenberg, Germany) at 450 nm.

For series [2], the system named is HEK293CYP2A6 cells. Nature of the series: Neutral comet assay in HEK293CYP2A6 cells. It is filed as cell-based, human. The method, then:
(§1) For neutral comet assays, transgenic CYP2A6 and transgenic CYP2C9 cells were treated with parent PCBs for 5 h. After treatments, 50 μL of a suspension of 10^5 cells/mL were washed in PBS and resuspended in 500 μL of preheated agarose (37 °C). The agarose/cell suspensions were applied to microscopic slides and left for 30 min at 4 °C to allow gel polymerization. After cell lysis using a commercial buffer (Trevigen, Gaithersburg, USA), single-cell gel electrophoresis was performed at 1 V/cm for 1 h. After precipitation of the DNA with ammonium acetate, samples were fixed in 70% ethanol for 30 min and dried. To visualize dsDNA, SYBR™ Green I Nucleic Acid Gel Stain (Invitrogen, Carlsbad, USA) was used. Pictures of at least 50 cells/section were taken using a fluorescence microscope (DMRX, Leica: 450–490 nm BP- filter, 40 × magnification). The extent of the genotoxic effect of PCBs was calculated using the ImageJ-based OpenComet software.

Series [3] concerns HEK293CYP2C9 cells. The experiment in a line: Neutral comet assay in HEK293CYP2C9 cells. It is filed as cell-based, human. The conditions noted are these: HEK293CYP2C9 control cells; 20 or 30 µM. As for the experimental part: as §1
For series [4], the system named is HEK293CYP2C9 cells. The experiment in a line: Micronucleus assay in HEK293CYP2C9 cells. It is filed as cell-based, human. The conditions noted are these: 20 and 30 µM, 24 h. The method, then:
(§2) Transgenic HEK293CYP2A6 and HEK293CYP2C9 cells were cultured in T25 flasks, with a seeding density of 1 × 10^6 cells per flask at 37 °C with 5% CO2. Cells were allowed to grow for 24 h geneticin free before PCBs were added (20 µM or 30 µM). Controls included cells grown in the presence of 1% ethanol (vol/vol) (negative control) or […] 4-nitroquinoline 1-oxide (positive control). Following further incubation for 24 h, cells were synchronized by adding Cytochalasin B. Subsequently, cells were harvested by trypsinization, centrifuged (2,000g, 10 min), and washed with DPBS (Dulbecco’s PBS). For hypotonic shock, 4 °C cold potassium chloride solution was added to the cells under agitation. Cells were completely resuspended and incubated at room temperature for 5 min. After centrifugation (2,500g, 10 min), the supernatant was discarded. To fix the cells, they were treated with a methanol/acetic acid solution (− 20 °C), with a minimum incubation time of 15 min at room temperature. Following centrifugation (2,500g, 10 min), the supernatant was discarded, and the fixation process was repeated at least three times. Finally, the samples were dissolved in 1 mL of fixative solution and incubated overnight at 4 °C. For analysis, two to three drops from each sample were placed on a glass slide, with intermittent heating of the slide. Subsequently, the cells were visualized with acridine orange, and using a fluorescence microscope (Leica DM6000B, Filter I3 450–490 nm), 2,000 cells per sample were counted.

In series [5] the test system is HEK293CYP2A6 cells. The experiment in a line: Light microscopic evaluation of HEK293CYP2A6 cells. It is filed as cell-based, human. The conditions noted are these: 24 h of incubation (data not shown).
Series [6] is described as follows: PCB concentrations in plasma of HELPcB participants (2010). The conditions noted are these: human, plasma, other: occupational exposure, sample of 2010. It is filed as in vivo, human.
Series [7] concerns HEK293CYP2A6 cells. Nature of the series: Micronucleus assay in HEK293CYP2A6 cells. It is filed as cell-based, human. The conditions noted are these: positive control, 10 µm, 24 h. The method, then:
as §2

Each structure is given as a SMILES string. Values joined by “and” are separate entries in the source; they are usually repeats but may differ in a detail not shown here. Equal values may be shown once.

In the case of `Oc1ccc(-c2ccc(Cl)cc2)c(Cl)c1Cl` [4′-OHCB25, 2′,3′,4-trichloro-4′-biphenylol], the “Metabolite concentration formed, range across cell clones” value on CYP1A2 (HEK293CYP1A2 cell clones, 20 µM PCB28, 24 h) is 0.15–0.23 µg/L and 0.56–0.84 nM.
In the case of `Cn1c(=O)c2c(ncn2C)n(C)c1=O` [Caffeine, reference compound], the Conversion product result on CYP1A2 (HEK293CYP1A2, 10 µM substrate, 24 h) is “Paraxanthine”.
Take `Clc1ccc(-c2ccc(Cl)cc2Cl)cc1` [PCB28, 2,4,4′-trichlorobiphenyl]: the “Concentration from which the fraction of cell viability affected (FA) increased” value in the series with HEK293CYP2A6 cells [1] (HEK293CYP2A6 cells, MTT) is recorded as 10 µM. Also, the IC50 in the series on HEK293CYP2A6 cells [1] (Homo sapiens, HEK293CYP2A6 cell line, read-out: IC50 (MTT, cell viability / metabolic activity)) was determined as 27 µM. In the series on HEK293CYP2A6 cells [1] (MTT assay, Fig. 2), the “PCB concentration at which the difference between HEK293 cells and CYP2A6 transgenic cells becomes statistically significant” value was 40 µM. The “DNA damage classified according to the comet scale (percentage of tail DNA)” value in the series on HEK293CYP2A6 cells [2] (20 µM) and with HEK293CYP2A6 cells [2] (30 µM) was “moderate damage” in each case. Further, in the series on HEK293CYP2A6 cells [2] (20 or 30 µM), the “Comet assay: percentage of tail DNA / DNA damage above background” value is given as “concentration-dependent increase”. Besides, the “Comet assay: increase in percentage of tail DNA” value in the series with HEK293CYP2C9 cells [3] is “not evident”. For the same compound, the Percentages of micronuclei entry with HEK293CYP2C9 cells [4] was “inactive”. The “Light microscopic evaluation: type of effect” value with HEK293CYP2A6 cells [5] is recorded as “primarily cytotoxic effects (cell death)”. Further, the concentration at 2010 calendar year in series [6] (HELPcB participant AD) worked out at 0.823 ng/mL; in series [6] (HELPcB participant AE) it was 1.48 ng/mL; in series [6] (HELPcB participant eight) it was 0.1 ng/mL; in series [6] (HELPcB participant five), 0.21 ng/mL; in series [6] (HELPcB participant four) it was 0.023 ng/mL; in series [6] (HELPcB participant seven), 0.051 ng/mL. Besides, the concentration at 2010 calendar year was found to be 0.309 ng/mL in series [6] (HELPcB participant six) and 0.999 ng/mL in series [6] (HELPcB participant three). Also, the concentration at 2010 calendar year of sampling in series [6] (HELPcB participant one) came out at 2.69 ng/mL; in series [6] (HELPcB participant two) it was 0.019 ng/mL.
As for `O=[N+]([O-])c1cc[n+]([O-])c2ccccc12` [4-nitroquinoline-(1)-oxide, reference compound], the “Micronucleus formation compared to the negative control ethanol” value in the series on HEK293CYP2A6 cells [7] is “consistent and significant elevation”.

(Values after PMC11489226 (Archives of Toxicology, 2024).)
